Data: the NIST ThermoML archive (doi:10.1016/j.jct.2016.03.026)
Numbers after ± are expanded uncertainties.

Experiment: xn = mol fraction of the nth substance listed
Details: Fluid (supercritical or subcritical phases), x1 = 0.97; for speed of sound: 304.19 K, Frequency=5 MHz, Pulse-echo method; for mass density: 304.21 K, Vibrating tube method

## O=C=O [carbon dioxide] + CO
65100 kPa
  speed of sound: 894.9 ± 1.2 m/s
70230 kPa
  speed of sound: 919.7 ± 1.2 m/s
75540 kPa
  speed of sound: 944.1 ± 1.2 m/s
79980 kPa
  speed of sound: 963.6 ± 1.3 m/s
90070 kPa
  speed of sound: 1005.1 ± 1.3 m/s
100040 kPa
  speed of sound: 1043.2 ± 1.3 m/s
109900 kPa
  speed of sound: 1078.3 ± 1.4 m/s
119960 kPa
  speed of sound: 1112.5 ± 1.4 m/s
140090 kPa
  speed of sound: 1173.8 ± 1.5 m/s
159770 kPa
  speed of sound: 1228.8 ± 1.6 m/s
180450 kPa
  speed of sound: 1282 ± 1.6 m/s
7850 kPa
  mass density: 713.81 ± 0.83 kg/m3
7875 kPa
  mass density: 715.24 ± 0.83 kg/m3
7900 kPa
  mass density: 716.69 ± 0.83 kg/m3
7925 kPa
  mass density: 717.99 ± 0.83 kg/m3
7950 kPa
  mass density: 719.19 ± 0.83 kg/m3
7975 kPa
  mass density: 720.37 ± 0.83 kg/m3
8000 kPa
  mass density: 721.57 ± 0.83 kg/m3
8025 kPa
  mass density: 722.66 ± 0.83 kg/m3
8050 kPa
  mass density: 723.78 ± 0.83 kg/m3
8075 kPa
  mass density: 724.91 ± 0.83 kg/m3
8100 kPa
  mass density: 725.92 ± 0.83 kg/m3
8125 kPa
  mass density: 726.93 ± 0.83 kg/m3
8150 kPa
  mass density: 728.01 ± 0.83 kg/m3
8175 kPa
  mass density: 729.1 ± 0.83 kg/m3
8200 kPa
  mass density: 730.14 ± 0.83 kg/m3
8225 kPa
  mass density: 731.15 ± 0.83 kg/m3
8250 kPa
  mass density: 732.12 ± 0.83 kg/m3
8275 kPa
  mass density: 733.11 ± 0.83 kg/m3
8300 kPa
  mass density: 734.02 ± 0.82 kg/m3
8325 kPa
  mass density: 735.01 ± 0.82 kg/m3
8350 kPa
  mass density: 735.91 ± 0.82 kg/m3
8375 kPa
  mass density: 736.81 ± 0.82 kg/m3
8400 kPa
  mass density: 737.68 ± 0.82 kg/m3
8425 kPa
  mass density: 738.51 ± 0.82 kg/m3
8450 kPa
  mass density: 739.43 ± 0.82 kg/m3
8475 kPa
  mass density: 740.29 ± 0.82 kg/m3
8500 kPa
  mass density: 741.14 ± 0.82 kg/m3
8525 kPa
  mass density: 741.99 ± 0.82 kg/m3
8550 kPa
  mass density: 742.83 ± 0.82 kg/m3
8575 kPa
  mass density: 743.65 ± 0.82 kg/m3
8600 kPa
  mass density: 744.47 ± 0.82 kg/m3
8625 kPa
  mass density: 745.32 ± 0.82 kg/m3
8650 kPa
  mass density: 746.1 ± 0.82 kg/m3
8675 kPa
  mass density: 746.89 ± 0.82 kg/m3
8700 kPa
  mass density: 747.67 ± 0.82 kg/m3
8725 kPa
  mass density: 748.5 ± 0.82 kg/m3
8750 kPa
  mass density: 749.21 ± 0.82 kg/m3
8775 kPa
  mass density: 749.97 ± 0.82 kg/m3
8800 kPa
  mass density: 750.73 ± 0.82 kg/m3
8825 kPa
  mass density: 751.52 ± 0.82 kg/m3
8850 kPa
  mass density: 752.22 ± 0.82 kg/m3
8875 kPa
  mass density: 752.97 ± 0.82 kg/m3
8900 kPa
  mass density: 753.68 ± 0.82 kg/m3
8925 kPa
  mass density: 754.39 ± 0.82 kg/m3
8950 kPa
  mass density: 755.11 ± 0.82 kg/m3
8975 kPa
  mass density: 755.82 ± 0.82 kg/m3
9000 kPa
  mass density: 756.48 ± 0.82 kg/m3
9025 kPa
  mass density: 757.25 ± 0.82 kg/m3
9050 kPa
  mass density: 757.93 ± 0.82 kg/m3
9075 kPa
  mass density: 758.64 ± 0.82 kg/m3
